Reference: patent US20190248834A1, “ENDOMORPHIN-2, TETRAPEPTIDE DERIVATIVES THEREOF, AND USES THEREOF” (priority 2016, published 2019)
Non-standard residues stand in square brackets, D forms with d. pGlu = O=C1CC[C@@H](C(=O)O)N1

Legend:
Assay type in all cases: in vivo, human
[1] = tested on: osteoarthritis of the knees; test: Example 94: osteoarthritic knees, intra-articular injection of N-Ac derivative; details: approximately 1% (w/v) in water, 1 ml per knee intra-articular
Procedure: A subject with osteoarthritis of the knees that progressively worsened over the years, evaluated the analgesic effectiveness of many topical preparations of tetrapeptide derivatives of the invention on numerous occasion. After such experiences, they decided to self-inject […] knees with a sterile aqueous preparation of N-Ac-Tyr-Pro-Phe-Phe-NH2, (SEQ ID NO: 23) at a concentration of approximately 1% (w/v) in water. Via the sub-patellar route, each knee was injected with 1 ml of the preparation, containing approximately 10 mg of the tetrapeptide . […] Walking about with the use of a wheeled walker at that time, the subject experienced knee pain, but at a level distinctly lower than earlier days before the injection. This degree of substantially diminished knee pain continued for an additional 16 hours when the return of pain was detected (3+ effect).

[2] = tested on: psoriatic arthritis pain, fingers and wrists; test: Example 48: comparative analgesic efficacy, psoriatic arthritis pain of fingers and wrists, topical; details: 1% (w/v) in WEP442, topical
Description: […] Treatment of the subject over the years included methotrexate and other antimetabolites, and in recent years drugs known as biologic medications. While these agents have provided intervals of relief, none has provided a lasting benefit. Over the past decade, painful arthritis developed in both wrists and in numerous joints of the fingers. Four related tetrapeptide derivatives, 1% (w/v) solution compositions in vehicle WEP442, one at a time, were topically applied to the fingers and wrists of both hands. […] Efficacy was rated by the subject as 4+. • (B) N-Ac-Tyr-Pro-Phe-Phe-NHNH2 (SEQ ID NO: 31) provided slow relief of pain, i.e. within about 10 minutes. […] Analgesic efficacy was judged by the subject to be 0 to 1+.

TMJ syndrome pain = test: Example 41: analgesic effect on TMJ pain, topical; details: 0.5% (w/v) in WEP442, topical
Description: The same subject, also suffered pain from TMJ syndrome involving the left side joint for about 6 years. Attempts to alleviate the pain, e.g. cushioning mouth pieces worn during the night, failed. […] Increasing longer periods of relief have occurred over 5-6 weeks. They have reported that there was no more pain in the affected joint over a period of about one month.

hangover headache = test: Example 74: analgesic effect on severe hangover headache, topical; details: 0.5% (w/v) in WEP442, topical
Description: They were provided a solution composition containing 0.5% (w/v) of N-Ac-Tyr-Pro-Phe-Phe-NH2 (SEQ ID NO: 23) in WEP442 which they topically applied to the neck, peripheral scalp, and entire face and forehead.

[3] = tested on: knee pain, lateral meniscus; test: Example 58: analgesic effect on knee pain due to injured lateral meniscus, topical; details: 1% (w/v) in WEP442, topical
Description: A subject had knee pain at the site of the lateral meniscus of the right knee, secondary to repeated trauma in the course of their work as a house builder. They evaluated two (2) tetrapeptide derivatives for efficacy in relieving this pain, including N-Ac-Tyr-Pro-Phe-Phe-NH2 (SEQ ID NO: 23) and N-Pg-Tyr-Pro-Phe-Phe-NH2 (SEQ ID NO: 44), both as a 1% (w/v) solution composition in WEP442. One solution composition was topically applied during the course of a day; and the other solution composition was topically applied during the course of the following day. The evaluation continued over a period of 8 days in this schedule.

pharyngitis = test: Example 64: analgesic effect on pharyngitis, oral
Procedure: A subject developed a respiratory tract infection, symptoms of which included coughing and pharyngitis. Swallowing of saliva was very painful for the subject. […] A solution containing 0.5% (w/v) of N-Pg-Tyr-Pro-Phe-Phe-NH2 (SEQ ID NO: 44) in a mixture of propylene glycol (10 parts by volume) and glycerol (90 parts by volume) was prepared. One teaspoonful of the solution was held in the posterior part of the mouth for about one minute and then swallowed. […] Such relief of painful swallowing lasted for about 3 hours. Repeated administrations provided the same results.

discomfort of hands = test: Example 63: analgesic effect on wrist and hand pain, topical; details: 0.5% (w/v) in WEP442, topical
Description: A person hairdresser, after several hours of styling hair, experienced substantial discomfort on their hands that interfered with further pursuit of their work.

[4] = tested on: knee pain, bulging meniscus; test: Example 65: analgesic effect on pain from bulging sub-patellar meniscus, topical; details: 0.6% (w/v) in WEP442, topical
Description: A landscape worker slipped on the grass and twisted their right knee, which became too painful for them to walk on without physical support. […] Surgical corrective procedures were scheduled for 2 weeks later. In the meantime, topical applications of the above solution as needed allowed them to move about with no discomfort.

stress induced headache = test: Example 51: analgesic effect on stress induced headache, topical
Description: The onset of the headache was associated with emotional stress. Within two hours, the intensity of the headache became almost disabling, whereupon […] applied a solution composition containing 1% (w/v) N-Pg-Ty-Pro-Phe-Phe-NH2 (SEQ ID NO: 44) in WEP442 to the entire frontal and upper facial areas. […] At that time, the solution was generously applied a second time. […] The analgesic effect was judged to be 100%.

[5] = tested on: post-operative knee soreness; test: Example 70: analgesic effect on post-operative tenderness and soreness of knee, topical; details: 0.6% (w/v) in WEP442, topical
Description: A person underwent surgical repair of a bulging meniscus of the right knee, after which there was substantial tenderness and soreness, particularly so upon their walking, which they were advised to do a few hours daily during the recovery period. Skin glue had been used for wound closure, which allowed for topical applications of a composition containing 0.6% (w/v) of N-Pg-Tyr-Pro-Phe-Phe-NH2 (SEQ ID NO: 44) in WEP442 to the entire knee including 5 surgical wound sites. […] Repeated topical applications provided freedom of movement throughout the day with negligible discomfort.

stress headaches = test: Example 69: analgesic effect on repeating stress headaches, topical; details: 0.5% (w/v) in WEP442, topical, 5-6 headaches over 3 weeks
Description: A person had repeated stress headaches for several months. Such headaches had been relieved, or partially relieved, by over-the-counter medication.

[6] = 0.5% (w/v) in propylene glycol/glycerol, oral

Molecule: CC(=O)N[C@@H](Cc1ccc(O)cc1)C(=O)N1CCC[C@H]1C(=O)N[C@@H](Cc1ccccc1)C(=O)N[C@@H](Cc1ccccc1)C(N)=O [N-Ac-Tyr-Pro-Phe-Phe-NH2]
- analgesic effect grade [1]: 3+ (3+ (75%): complete relief of pain for less than 4 hours)
- discomfort from the injection [1]: Mild discomfort from the injection
- additional duration of substantially diminished knee pain ([1]; after the first 24 hours): 16 h
- knee pain ([1]; over the ensuing 24 hours): the knee pain gradually diminished
- pain relief [2]: rapid complete relief of pain
- duration of pain relief (TMJ syndrome pain): more than 8 hours
- pain relief (TMJ syndrome pain): rapidly and completely alleviated pain
- headache relief (hangover headache): almost immediate, complete, relief of their aching head
- duration of pain relief [3]: about 4 hours
- pain relief [3]: complete relief of pain

Molecule: N-Pg-Tyr-Pro-Phe-Phe-NH2 ([pGlu]YPFF-NH2; SMILES NC(=O)[C@H](Cc1ccccc1)NC(=O)[C@H](Cc1ccccc1)NC(=O)[C@@H]1CCCN1C(=O)[C@H](Cc1ccc(O)cc1)NC(=O)[C@@H]1CCC(=O)N1)
- relief of painful swallowing (pharyngitis; 0.5% (w/v) in propylene glycol/glycerol 10:90, one teaspoonful held in mouth and swallowed): swallowing of liquids and semi-solid food could be done without pharyngeal pain
- duration of relief (pharyngitis; [6]): about 3 hours
- time to relief (pharyngitis; [6]): ≤ 10 min
- relief of discomfort (discomfort of hands): complete relief
- duration of pain relief [4]: lasted throughout the working day
- pain relief [4]: complete relief of pain
- time to pain relief [4]: 3 to 4 min
- headache intensity (stress induced headache; 1% (w/v) in WEP442, first application, within about 5 minutes): diminished in intensity
- pain relief (stress induced headache; 1% (w/v) in WEP442, second application, within another 5 minutes): free of all headache pain
- analgesic effect (stress induced headache; 1% (w/v) in WEP442, topical): 100%
- time without return of pain (stress induced headache; 1% (w/v) in WEP442, topical): ≥ 24 h
- pain relief [2]: rapid relief of pain
- duration of pain relief [5]: 2 to 3 h
- pain relief [5]: rapid, almost complete, relief of pain sensations
- duration of pain relief [3]: about 4 hours
- pain relief [3]: complete relief of pain
- headache relief (stress headaches): completely relieved almost immediately
